Measured values from ChEMBL document CHEMBL5131569, “SAGE-718: A First-in-Class N-Methyl-d-Aspartate Receptor Positive Allosteric Modulator for the Potential Treatment of Cognitive Impairment” (J Med Chem, 2022).

Assays:
[1] = target: T1, Potassium/sodium hyperpolarization-activated cyclic nucleotide-gated channel 2 (Homo sapiens, UniProt Q9UL51); assay: Inhibition of HCN2 (unknown origin) by patch clamp method
T1 sequence (Q9UL51 whole entry): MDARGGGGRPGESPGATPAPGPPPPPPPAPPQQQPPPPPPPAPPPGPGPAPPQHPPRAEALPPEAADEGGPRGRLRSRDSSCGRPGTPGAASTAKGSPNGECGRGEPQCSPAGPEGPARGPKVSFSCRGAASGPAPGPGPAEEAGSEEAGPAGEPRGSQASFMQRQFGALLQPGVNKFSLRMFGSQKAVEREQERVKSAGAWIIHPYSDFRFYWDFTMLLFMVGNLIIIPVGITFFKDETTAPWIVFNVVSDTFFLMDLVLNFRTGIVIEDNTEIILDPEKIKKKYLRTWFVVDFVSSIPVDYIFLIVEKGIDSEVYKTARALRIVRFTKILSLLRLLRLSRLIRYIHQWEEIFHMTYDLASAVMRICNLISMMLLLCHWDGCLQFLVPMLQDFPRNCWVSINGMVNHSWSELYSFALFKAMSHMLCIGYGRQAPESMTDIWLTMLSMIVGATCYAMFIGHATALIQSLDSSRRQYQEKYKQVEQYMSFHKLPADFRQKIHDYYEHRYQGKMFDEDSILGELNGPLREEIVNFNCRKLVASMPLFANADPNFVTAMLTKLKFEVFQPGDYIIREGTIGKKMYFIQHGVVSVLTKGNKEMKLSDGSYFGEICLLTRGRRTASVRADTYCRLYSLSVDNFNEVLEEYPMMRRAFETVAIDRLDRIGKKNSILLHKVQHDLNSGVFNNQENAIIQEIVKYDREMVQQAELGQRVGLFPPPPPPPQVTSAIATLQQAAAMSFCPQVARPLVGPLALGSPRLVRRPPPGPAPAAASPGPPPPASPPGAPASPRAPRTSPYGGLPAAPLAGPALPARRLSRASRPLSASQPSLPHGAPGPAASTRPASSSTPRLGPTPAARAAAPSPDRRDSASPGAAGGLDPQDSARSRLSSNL

[2] = Clearance in CD-1 mouse by LC-MS/MS analysis; assay type: ADME; conditions: in vivo
[3] = Clearance in Sprague-Dawley rat by LC-MS/MS analysis; assay type: ADME; conditions: in vivo
[4] = Drug concentration in CD-1 mouse plasma at 3 mg/kg, ip administered for 90 mins; assay type: ADME, organism-based

With `C[C@H](CC[C@](C)(O)C(F)(F)F)[C@H]1CC[C@H]2[C@@H]3CC=C4C[C@@](C)(O)CC[C@]4(C)[C@H]3CC[C@]12C` [DALZANEMDOR] as the compound, how does the IC50 [1] read?
The IC50 was over 30 µM.

And the clearance [2]?
Its clearance is 5 mL/min/kg.

What about the clearance [3] of the same compound?
The clearance was 10 mL/min/kg.

And the concentration at 1.5 h [4]?
Its concentration at 1.5 h is 577 ng/mL.
